Reference: ChEMBL document CHEMBL1150102, “Chemical constituents of halophilic facultatively anaerobic bacteria, 1” (J Nat Prod, 1995)
In brackets after ≈: the same amount, converted by molar mass. Activity calls are given as the source filed them. The calls are words filed in the database; no cut-off is given here.

Legend:
[1] = Inhibition of tyrosin kinase pp60src
P388 = test: Cytotoxicity against mouse P388 cells; assay type: functional, cell-based

Compound | Activity [1] | IC50 (P388)
N#Cc1c[nH]c2ccccc12 | inactive | 
CC(C)C(=O)NCCc1ccc(O)c([N+](=O)[O-])c1 | inactive | 3 µg/mL (≈ 11.9 µM)
O=C(O)c1c[nH]c2ccccc12 | inactive | 
O=C(O)Cc1ccccc1 | inactive | 
O=C(O)Cc1ccc(O)c([N+](=O)[O-])c1 | inactive | 
CC(C)CC(=O)NCCc1ccc(OC(=O)CC(C)C)c([N+](=O)[O-])c1 | inactive | 
COC(=O)Cc1ccc(OC)c([N+](=O)[O-])c1 | inactive | 
CC(C)CC(=O)NCCc1ccc(O)c([N+](=O)[O-])c1 | inactive | 
O=Cc1c[nH]c2ccccc12 | inactive | 
CC(C)C(=O)NCCc1ccc(OC(=O)C(C)C)c([N+](=O)[O-])c1 | inactive | 
